The values that follow come from ChEMBL document CHEMBL1833942, “6-arylcoumarins as novel nonsteroidal type progesterone antagonists: an example with receptor-binding-dependent fluorescence” (J Med Chem, 2011).

Calls of active or inactive are those of the source. The rule behind the calls is not given here.

Assay [1] concerns the target T1, Progesterone receptor (Homo sapiens) (UniProt P06401).
T1 sequence (whole entry): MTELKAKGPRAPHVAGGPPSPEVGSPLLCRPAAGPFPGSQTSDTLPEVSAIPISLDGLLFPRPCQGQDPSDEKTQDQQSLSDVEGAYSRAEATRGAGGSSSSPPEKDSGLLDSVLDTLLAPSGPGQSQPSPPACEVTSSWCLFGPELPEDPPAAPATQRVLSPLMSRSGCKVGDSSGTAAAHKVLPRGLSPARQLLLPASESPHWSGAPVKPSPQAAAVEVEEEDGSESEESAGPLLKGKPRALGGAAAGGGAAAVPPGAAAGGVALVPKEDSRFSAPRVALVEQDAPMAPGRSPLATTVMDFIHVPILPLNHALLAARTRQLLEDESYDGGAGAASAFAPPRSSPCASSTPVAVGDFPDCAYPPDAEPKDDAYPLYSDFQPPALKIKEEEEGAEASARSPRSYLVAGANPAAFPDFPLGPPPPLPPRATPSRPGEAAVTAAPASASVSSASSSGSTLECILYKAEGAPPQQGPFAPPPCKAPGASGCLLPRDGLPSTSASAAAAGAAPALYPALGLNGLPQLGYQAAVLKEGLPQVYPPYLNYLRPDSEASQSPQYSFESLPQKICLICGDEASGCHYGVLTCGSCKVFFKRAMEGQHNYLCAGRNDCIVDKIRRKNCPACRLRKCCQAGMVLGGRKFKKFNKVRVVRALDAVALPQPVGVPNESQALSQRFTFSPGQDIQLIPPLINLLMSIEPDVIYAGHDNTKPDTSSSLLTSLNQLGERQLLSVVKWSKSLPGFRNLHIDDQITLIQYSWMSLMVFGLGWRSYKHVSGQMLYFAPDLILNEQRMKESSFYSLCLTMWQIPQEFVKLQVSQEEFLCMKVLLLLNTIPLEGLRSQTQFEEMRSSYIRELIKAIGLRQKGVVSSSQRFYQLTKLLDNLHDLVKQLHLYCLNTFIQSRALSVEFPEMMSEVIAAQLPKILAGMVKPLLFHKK
In words: Antagonist activity at human progesterone receptor expressed in CHO cells at 10^-6 M after 24 hrs by luciferase reporter gene assay. The class given is functional, cell-based.

In assay [2] the target is T2, Progesterone receptor (Homo sapiens, UniProt P06401).
T2 sequence (P06401 whole entry): T1 sequence (whole entry)
Kind of assay: Antagonist activity at human progesterone receptor in T47D cells after 24 hrs by alkaline phosphatase assay. The class given is functional, cell-based.

For assay [3], the target named is T3, Estrogen receptor (Homo sapiens) (UniProt P03372).
T3 sequence (whole entry): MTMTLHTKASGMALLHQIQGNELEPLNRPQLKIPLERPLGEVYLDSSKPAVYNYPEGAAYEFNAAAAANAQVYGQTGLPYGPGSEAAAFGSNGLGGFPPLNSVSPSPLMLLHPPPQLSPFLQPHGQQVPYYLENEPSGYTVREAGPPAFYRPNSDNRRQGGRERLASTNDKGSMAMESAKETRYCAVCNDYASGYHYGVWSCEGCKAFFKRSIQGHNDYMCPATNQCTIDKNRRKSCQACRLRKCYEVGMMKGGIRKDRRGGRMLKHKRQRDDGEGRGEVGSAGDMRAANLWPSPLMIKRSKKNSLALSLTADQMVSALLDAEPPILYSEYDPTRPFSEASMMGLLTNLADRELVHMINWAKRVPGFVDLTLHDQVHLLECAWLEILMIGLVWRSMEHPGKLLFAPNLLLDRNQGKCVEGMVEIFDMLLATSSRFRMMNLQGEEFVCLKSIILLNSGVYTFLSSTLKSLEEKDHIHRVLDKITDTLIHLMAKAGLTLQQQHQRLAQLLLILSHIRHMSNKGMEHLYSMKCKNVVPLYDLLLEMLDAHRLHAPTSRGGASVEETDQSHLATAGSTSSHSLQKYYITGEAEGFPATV
Kind of assay: Binding affinity at human estrogen receptor by fluorescence assay.

Assay [4] addresses T4, Androgen receptor (Homo sapiens, UniProt P10275).
T4 sequence (P10275 whole entry): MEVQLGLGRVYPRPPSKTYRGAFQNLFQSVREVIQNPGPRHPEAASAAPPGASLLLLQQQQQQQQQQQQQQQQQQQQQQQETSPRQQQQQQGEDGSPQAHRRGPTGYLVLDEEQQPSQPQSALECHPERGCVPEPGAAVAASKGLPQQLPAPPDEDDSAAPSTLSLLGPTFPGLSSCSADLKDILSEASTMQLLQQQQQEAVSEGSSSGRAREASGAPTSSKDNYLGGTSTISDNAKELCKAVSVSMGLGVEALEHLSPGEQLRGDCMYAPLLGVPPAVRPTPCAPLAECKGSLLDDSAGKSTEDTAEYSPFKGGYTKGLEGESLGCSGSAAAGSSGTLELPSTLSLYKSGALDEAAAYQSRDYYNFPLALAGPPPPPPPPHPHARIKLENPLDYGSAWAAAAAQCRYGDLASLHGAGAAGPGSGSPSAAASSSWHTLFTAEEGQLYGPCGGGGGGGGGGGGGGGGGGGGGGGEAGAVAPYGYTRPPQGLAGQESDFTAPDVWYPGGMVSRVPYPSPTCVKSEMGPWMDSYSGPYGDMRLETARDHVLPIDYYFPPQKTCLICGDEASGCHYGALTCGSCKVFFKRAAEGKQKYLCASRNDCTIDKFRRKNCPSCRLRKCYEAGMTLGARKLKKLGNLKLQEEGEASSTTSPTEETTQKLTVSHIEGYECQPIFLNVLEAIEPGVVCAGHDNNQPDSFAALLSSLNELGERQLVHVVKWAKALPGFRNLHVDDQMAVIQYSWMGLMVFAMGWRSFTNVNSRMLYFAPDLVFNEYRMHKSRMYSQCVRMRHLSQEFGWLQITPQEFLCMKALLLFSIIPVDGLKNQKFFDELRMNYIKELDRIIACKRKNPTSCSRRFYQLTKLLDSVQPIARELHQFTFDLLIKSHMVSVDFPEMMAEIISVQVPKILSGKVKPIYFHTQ
In words: Displacement of [3H]DHT from human recombinant androgen receptor-LBD expressed in Escherichia coli after 18 hrs by liquid scintillation counting.

The target of assay [5] is T1, Progesterone receptor (Homo sapiens). In words: Binding affinity to human PR LBD by fluorescence assay.
The target of assay [6] is T5, Glucocorticoid receptor (Homo sapiens, UniProt P04150).
T5 sequence (P04150 whole entry): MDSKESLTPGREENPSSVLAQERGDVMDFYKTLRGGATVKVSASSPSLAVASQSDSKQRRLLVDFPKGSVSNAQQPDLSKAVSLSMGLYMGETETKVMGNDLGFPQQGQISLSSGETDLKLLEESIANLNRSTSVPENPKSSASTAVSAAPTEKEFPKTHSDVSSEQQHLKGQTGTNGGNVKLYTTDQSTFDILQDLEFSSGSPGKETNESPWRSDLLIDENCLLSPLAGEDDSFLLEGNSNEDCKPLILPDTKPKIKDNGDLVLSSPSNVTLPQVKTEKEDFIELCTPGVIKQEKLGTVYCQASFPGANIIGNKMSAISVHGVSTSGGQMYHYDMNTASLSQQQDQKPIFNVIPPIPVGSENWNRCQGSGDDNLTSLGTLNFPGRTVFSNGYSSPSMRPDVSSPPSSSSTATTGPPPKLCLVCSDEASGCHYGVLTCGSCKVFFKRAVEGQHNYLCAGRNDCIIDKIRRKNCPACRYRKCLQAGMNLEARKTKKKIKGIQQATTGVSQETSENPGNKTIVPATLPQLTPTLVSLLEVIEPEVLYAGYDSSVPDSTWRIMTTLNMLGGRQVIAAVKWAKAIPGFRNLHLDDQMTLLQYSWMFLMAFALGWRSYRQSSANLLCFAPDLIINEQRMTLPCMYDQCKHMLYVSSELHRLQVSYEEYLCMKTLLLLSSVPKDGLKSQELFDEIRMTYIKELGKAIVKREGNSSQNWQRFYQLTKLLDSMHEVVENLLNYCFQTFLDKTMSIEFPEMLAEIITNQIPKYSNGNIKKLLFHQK
Kind of assay: Displacement of [3H]-dexamethasone from human recombinant glucocorticoid receptor after 18 hrs by liquid scintillation counting. (In a radioligand displacement assay an active substance lowers the binding of a labelled ligand.)

Assay [7] concerns the target T1, Progesterone receptor (Homo sapiens). Kind of assay: Antagonist activity at human progesterone receptor expressed in CHO cells at 10^-7 M after 24 hrs by luciferase reporter gene assay. In kind it is functional, cell-based. (Reporter assays use an easily measured gene product as a stand-in for the process of interest.)
Assay [8] has the same target. In words: Antagonist activity at human progesterone receptor expressed in CHO cells at 10^-5 M after 24 hrs by luciferase reporter gene assay. The class given is functional, cell-based.
Assay [9] has the same target. Kind of assay: Binding affinity to human PR LBD by fluorescence assay in presence of progesterone.
Assay [10] deals with T2, Progesterone receptor. Kind of assay: Displacement of [1,2,6,7-3H]PG from human PR-LBD after 24 hrs by liquid scintillation counting.

In the case of `CCN(CC)c1cc2oc(=O)ccc2cc1-c1ccccc1`, the result in assay [1], in [5], in assay [7] and in assay [8] was Active. The 50% inhibitory concentration (IC50) (usually the concentration at which inhibition is half-maximal) in assay [2] amounted to 500 nM; in assay [4] it was 10000 nM; in assay [6] it was 3540 nM; in assay [10], 1420 nM. The result in [3] and in [9] was inactive. With `COc1cc2oc(=O)ccc2cc1-c1ccccc1`, inhibition in [2] was half-maximal at 880 nM (IC50). On the same count and under the same terms, in the case of `O=c1ccc2cc(-c3cccc(C(F)(F)F)c3)ccc2o1` it was 190 nM; in that of `CCN(CC)c1cc2oc(=O)ccc2cc1-c1ccc([N+](=O)[O-])cc1`, 860 nM. The same measure, in the same setting: in the case of `CCN(CC)c1cc2oc(=O)ccc2cc1-c1ccc(F)cc1` it was 630 nM; in that of `CN(C)c1cc2oc(=O)ccc2cc1-c1ccc(C#N)cc1`, 250 nM; in that of `CN(C)c1cc2oc(=O)ccc2cc1-c1cccc(C#N)c1`, 260 nM.

For `O=c1ccc2cc(-c3cccs3)ccc2o1`, the outcome in assay [1], in assay [7] and in [8] was Active. In addition, the IC50 in [2] turned out to be 540 nM; in [10], 10000 nM.

`CN(C)c1cc2oc(=O)ccc2cc1-c1ccc(F)cc1` registered an IC50 in assay [2] of 470 nM. Same read-out and setting: in the case of `O=c1ccc2cc(-c3ccccc3)ccc2o1` it was 510 nM; in that of `CCN(CC)c1cc2oc(=O)ccc2cc1-c1ccc(Cl)cc1`, 770 nM.

In assay [2], `N#Cc1ccc(-c2ccc3oc(=O)ccc3c2)cc1` had an IC50 of 290 nM. The same measure, in the same setting: in the case of `CCN(CC)c1cc2oc(=O)ccc2cc1-c1ccc(NC(C)=O)cc1` it was 470 nM. As to `Cn1c(C#N)ccc1-c1ccc2oc(=O)ccc2c1`, the outcome in [1], in assay [7] and in assay [8] was Active. Moreover, the IC50 came to 65 nM in assay [2] and 15200 nM in [10]. In turn, `CCN(CC)c1cc2oc(=O)ccc2cc1-c1ccc(N)c([N+](=O)[O-])c1` had an IC50 in [2] of 510 nM. Regarding `CCN(CC)c1cc2oc(=O)ccc2cc1-c1cccs1`, the result in assay [1], in assay [7] and in assay [8] was Active. Further, the IC50 in [2] amounted to 220 nM; in assay [4] it was 9700 nM; in assay [6] it was 4960 nM; in assay [10], 1240 nM. `CCN(CC)c1cc2oc(=O)ccc2cc1-c1ccc(C(C)=O)cc1`: the IC50 in assay [2] is 400 nM.

Regarding `O=c1ccc2cc(-c3ccc(F)cc3)ccc2o1`, 210 nM corresponded to half-maximal inhibition in [2] (IC50).

On to `O=c1ccc2cc(-c3cc(F)cc(F)c3)ccc2o1`, for which the midpoint of inhibition in [2], the IC50, lay at 560 nM. Still for that read-out and setting: in the case of `CCN(CC)c1cc2oc(=O)ccc2cc1-c1ccc(C#N)cc1` it was 500 nM; in that of `N#Cc1cccc(-c2ccc3oc(=O)ccc3c2)c1`, 1110 nM; in that of `O=c1ccc2cc(-c3cccc(-c4cccnc4)c3)ccc2o1`, 27900 nM. The same measure, in the same setting: in the case of `CCN(CC)c1cc2oc(=O)ccc2cc1-c1cccc(C#N)c1` it was 380 nM.

As for `CN(C)c1ccc(-c2cc3ccc(=O)oc3cc2O)cc1`, the 50% inhibitory concentration (IC50) in assay [2] is 2590 nM. Take `O=c1ccc2cc(-c3ccc(Cl)s3)ccc2o1`: the result in [1], in assay [7] and in [8] was Active. For the same compound, the IC50 in assay [2] amounted to 120 nM; in [10] it was 50500 nM.

`CCN(CC)c1cc2oc(=O)ccc2cc1-c1ccc(N(C)C)cc1` returned an IC50 in [2] of 390 nM. Still for that read-out and setting: in the case of `CCOC(=O)c1cc2cc(-c3ccccc3)c(N(CC)CC)cc2oc1=O` it was 4070 nM; in that of `O=c1ccc2cc(-c3ccco3)ccc2o1`, 1280 nM. Same read-out and setting: in the case of `CN(C)c1cc2oc(=O)ccc2cc1-c1ccccc1` it was 360 nM; in that of `COc1cc2oc(=O)ccc2cc1-c1ccc(N(C)C)cc1`, 3340 nM; in that of `O=c1ccc2cc(-c3ccccc3)c(O)cc2o1`, 1280 nM. Same read-out and setting: in the case of `CN(C)c1ccc(-c2ccc3oc(=O)ccc3c2)cc1` it was 310 nM.
